Data on ten molecules can be found in patent publication US11299496B2, “Ligands for alpha-7 nicotinic acetylcholine receptors and methods of treating neurological and inflammatory conditions” (Northeastern University, priority 2014, dated 2022).

The test addresses T1, human alpha-7 nAChR (Homo sapiens, UniProt P36544).
T1 construct: expressed in transfected cells; host or cells: Xenopus laevis oocytes (cRNA injection)
Description: Two-electrode voltage clamp of alpha-7 nAChR expressed in Xenopus oocytes (net charge). The test is classed as cell-based. To be noted: area under the curve of current vs. time; for Charge Alone: compound alone acting as an allosteric agonist; for Charge +C: compound together with choline or ACh, includes PAM and ago-PAM activity. On the procedure:
The human alpha-7 nAChR receptor clone was obtained from Dr. Jon Lindstrom {University of Pennsylvania, Philadelphia, Pa.), aid the RIC-3 clone from Dr. Millet Treinin (Hebrew University, Jerusalem, Israel) for the purpose of co-injection with a7 to improve the level and speed of receptor expression (Halevi et al., 2003). After linearization and purification of cloned cDNA's, RNA, transcripts were prepared rising the appropriate mMessage mMachine kit tiom Ambion (Austin, Tex.).
Expression in X, laeivis Oocytes
Oocytes were obtained from mature (>9 cm) female Xenopus laeivis African frogs (Nasco, Ft. Atkinson, Wis.). Frogs were anesthetized in 0.7 g/L solution of ethyl 3-aminobenzoate methanesulfonate buffered with sodium bicarbonate, and oocytes were surgically removed through an abdominal incision. Harvested oocytes were treated with 1.25 mg/ml collagenase (Worthington Biochemicals, Freehold, N.J.) in calcium-free Barth's solution (88 mM NaCl, 1 mM KCl, 2.38 mM NaHCO3, 0.82 mM MgSO4, 15 mM HEPES, 12 mg/L tetracycline, pH 7.6) for 3-4 hours to remove the follicular layer. Stage-5 oocytes were isolated and injected with 50 nL (5-20 ng) of human alpha-7 and RIC-3 cRNA. Suitable levels of receptor expression were typically achieved 2-6 days after injection of cRNA. For experiments involving the PAM 4BP-TQS/GAT-107, where standard levels of expression result in ion currents too large to be recorded in voltage clamp, experiments were typically conducted 1-3 days after RNA injection.
Two-electrode voltage clamp experiments were conducted using OpusXpress6000A (Molecular Devices, Sunnyvale, Calif.), an integrated system that provides automated impalement and voltage clamp of up to eight oocytes in parallel. Both the current and voltage electrodes were filled with 3 M KCl, and oocytes were clamped at a holding potential of −60 mV. Data were collected at 50 Hz and filtered at 20 Hz. The oocytes were bath-perfused with Ringer's solution (115 mM NaCl, 10 mM HEPES, 2.5 mM KCl, 1.8 mM CaCl2, pH 7.3), and agonist solutions were delivered from a 96-well drug plate using disposable tips. Flow rates were set at 2 mL/min, with each drug or control solution delivered in 12 s durations, followed˜by 181 s washouts with Ringer's unless noted otherwise.
Experimental Protocols and Data Analysis
Responses of human alpha-7 receptors to agonists were measured as both peek current and net charge measured over a 120 s period beginning with the compound application (Papke and Papke, 2002). […] In experiments involving positive allosteric modulators (PAMs), the fast desensitization of alpha-7 was eliminated, allowing peak currents to be used as a valid measurement of the receptor-mediated responses (Wang et al., 2012; Williams et al., 2011).
Oocytes received two control ACh applications prior to receiving any drug in order to establish a steady reference response, and they received one or more control ACh applications at the end of all experiments. For experiments involving drug incubation through bath applications, all responses were normalized to the average of two ACh control responses taken immediately prior to the switch of bath solution, for each cell individually. These normalization procedures had the effect of compensating for differing levels of receptor expression among the multiple oocytes used in each experiment. Each experiment was conducted on at least four oocytes, with mean values and standard errors (S.E.M.) calculated from their normalized responses. […]
On the technique in general: In two-electrode clamp one electrode senses voltage and the other passes current.

SMILES strings stand for the structures.

T1 sequence (P36544 23-502): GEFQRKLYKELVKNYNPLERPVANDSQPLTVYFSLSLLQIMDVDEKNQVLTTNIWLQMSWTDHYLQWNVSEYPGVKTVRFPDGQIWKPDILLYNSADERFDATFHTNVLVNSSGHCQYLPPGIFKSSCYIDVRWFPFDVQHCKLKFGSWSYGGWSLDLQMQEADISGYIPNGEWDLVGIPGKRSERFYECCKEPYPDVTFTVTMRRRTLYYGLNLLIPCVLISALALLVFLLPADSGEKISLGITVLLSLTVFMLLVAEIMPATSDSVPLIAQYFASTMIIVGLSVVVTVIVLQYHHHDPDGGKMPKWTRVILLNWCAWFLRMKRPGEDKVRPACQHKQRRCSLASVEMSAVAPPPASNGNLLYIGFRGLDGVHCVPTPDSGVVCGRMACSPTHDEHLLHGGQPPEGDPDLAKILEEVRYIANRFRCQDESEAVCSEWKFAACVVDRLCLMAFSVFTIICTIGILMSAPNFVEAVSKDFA

Turning to `CC(C)NS(=O)(=O)c1ccc2c(c1)[C@H]1C=CC[C@H]1[C@@H](c1ccc(Br)cc1)N2` (stereo in doubt) [Compound 100, 4-(4-bromophenyl)-N-isopropyl-3a,4,5,9b-tetrahydro-3H-cyclopenta[c]quinoline-8-sulfonamide], the “Charge Alone” value is on record as “Inactive” and the “Charge +C” value was “Inactive”.

For `CC(C)(C)NS(=O)(=O)c1ccc2c(c1)[C@H]1C=CC[C@H]1[C@@H](c1ccc(Br)cc1)N2` (stereo in doubt) [Compound 101, 4-(4-bromophenyl)-N-(tert-butyl)-3a,4,5,9b-tetrahydro-3H-cyclopenta[c]quinoline-8-sulfonamide], the “Charge Alone” value is reported as “Inactive” and the “Charge +C” value was “Inactive”.

Turning to `O=S(=O)(NC1CCCCC1)c1ccc2c(c1)[C@H]1C=CC[C@H]1[C@@H](c1ccc(Br)cc1)N2` (stereo in doubt) [Compound 102, 4-(4-bromophenyl)-N-cyclohexyl-3a,4,5,9b-tetrahydro-3H-cyclopenta[c]quinoline-8-sulfonamide], the “Charge Alone” value is recorded as “Inactive” and the “Charge +C” value is on record as “Inactive”.

As for `O=S(=O)(Nc1ccccc1)c1ccc2c(c1)[C@H]1C=CC[C@H]1[C@@H](c1ccc(Br)cc1)N2` (stereo in doubt) [Compound 103, 4-(4-bromophenyl)-N-phenyl-3a,4,5,9b-tetrahydro-3H-cyclopenta[c]quinoline-8-sulfonamide], the “Charge Alone” value was “Inactive” and the “Charge +C” value is “Inactive”.

On to `O=S(=O)(NCC1CC1)c1ccc2c(c1)[C@H]1C=CC[C@H]1[C@@H](c1ccc(Br)cc1)N2` (stereo in doubt) [Compound 105, 4-(4-bromophenyl)-N-(cyclopropylmethyl)-3a,4,5,9b-tetrahydro-3H-cyclopenta[c]quinoline-8-sulfonamide], for which the “Charge Alone” value was “Inactive” and the “Charge +C” value is recorded as “Inactive”.

Regarding `CCCNS(=O)(=O)c1ccc2c(c1)[C@H]1C=CC[C@H]1[C@H](c1ccc(Br)cc1)N2` (stereo in doubt) [Compound 106, 4-(4-bromophenyl)-N-propyl-3a,4,5,9b-tetrahydro-3H-cyclopenta[c]quinoline-8-sulfonamide], the “Charge Alone” value was “Inactive” and the “Charge +C” value is on record as “Inactive”.

Take `CCCNS(=O)(=O)c1ccc2c(c1)[C@H]1C=CC[C@H]1[C@@H](c1ccc(Br)cc1)N2` (stereo in doubt) [Compound 107, 4-(4-bromophenyl)-N-propyl-3a,4,5,9b-tetrahydro-3H-cyclopenta[c]quinoline-8-sulfonamide]: the “Charge Alone” value was “Inactive” and the “Charge +C” value is “Inactive”.

With `C=C(C)CNS(=O)(=O)c1ccc2c(c1)[C@H]1C=CC[C@H]1[C@@H](c1ccc(Br)cc1)N2` (stereo in doubt) [Compound 108, 4-(4-bromophenyl)-N-(2-methylallyl)-3a,4,5,9b-tetrahydro-3H-cyclopenta[c]quinoline-8-sulfonamide], the “Charge Alone” value is given as “Inactive” and the “Charge +C” value was “Inactive”.

`CCC(C)CNS(=O)(=O)c1ccc2c(c1)[C@H]1C=CC[C@H]1[C@@H](c1ccc(Br)cc1)N2` (stereo in doubt) [Compound 109, 4-(4-bromophenyl)-N-(2-methylbutyl)-3a,4,5,9b-tetrahydro-3H-cyclopenta[c]quinoline-8-sulfonamide]: the “Charge Alone” value is “Inactive” and the “Charge +C” value is “Inactive”.

For `CCCCNS(=O)(=O)c1ccc2c(c1)[C@H]1C=CC[C@H]1[C@@H](c1ccc(Br)cc1)N2` (stereo in doubt) [Compound 110, 4-(4-bromophenyl)-N-butyl-3a,4,5,9b-tetrahydro-3H-cyclopenta[c]quinoline-8-sulfonamide], the “Charge Alone” value is recorded as “Inactive” and the “Charge +C” value is on record as “Inactive”.
